Reference: patent US20040097567A1, “Pharmaceutical composition” (priority 2001, published 2004)

System: diabetic rats, n0STZ
Experiment: Oral glucose tolerance test (OGTT) in n0STZ diabetic rats: plasmatic glycaemia and insulinaemia
Format: in vivo, rat
Conditions: for Plasmatic insulin / Plasmatic glucose / Plasmatic glucose AUC / Plasmatic insulin AUC: OGTT glucose 2 g/kg, products given 2 hours before, Compound A 12.5 mg/kg, glibenclamide 2 mg/kg; for Plasmatic glucose AUC / Plasmatic insulin AUC: AUC over 0-120 min; for effect on carbohydrate tolerance: acute administration, 12.5 mg/kg compound A or 2 mg/kg glibenclamide
Protocol: Diabetes is induced in male rats (source: Iffa Credo) by intravenous administration of streptozotocin on the day of birth.
The rats are selected according to the criterion of hyperglycaemia 170±15 mg/dl.
The animals are grouped into 5 rats per batch and divided into 4 batches
The products are administered 2 hours before the glucose tolerance test, at a rate of 12.5 mg/kg for 4-[2-(2,4-dioxothiazolidin-5-yl)ethoxy]benzonitrile, 2 mg/kg for glibenclamide and the combination of the 2 products at the doses used in monotherapy.
The glucose tolerance test (OGTT) is performed on the conscious animal and consists in administering glucose at a rate of 2 g/kg. The plasmatic glucose clearance is analysed after this glucose load, over 2 hours (0-10-20-30-45-60-90 and 120 min).
In addition to plasmatic glycaemia, insulinaemia is also determined.

SMILES | Plasmatic insulin (0 min) [μU/ml] | Plasmatic glucose (0 min, 5 rats/batch) [mg/dL] | Plasmatic glucose (10 min) [mg/dL] | Plasmatic insulin (10 min) [μU/ml] | Plasmatic glucose (20 min) [mg/dL] | Plasmatic insulin (20 min) [μU/ml] | Plasmatic glucose (30 min) [mg/dL] | Plasmatic insulin (30 min) [μU/ml] | Plasmatic glucose (45 min) [mg/dL] | Plasmatic insulin (45 min) [μU/ml] | Plasmatic glucose (60 min) [mg/dL] | Plasmatic insulin (60 min) [μU/ml] | Plasmatic glucose (90 min) [mg/dL] | Plasmatic insulin (90 min) [μU/ml] | Plasmatic glucose (120 min) [mg/dL] | Plasmatic insulin (120 min) [μU/ml] | Plasmatic glucose AUC | Plasmatic insulin AUC | effect on carbohydrate tolerance (n0STZ rats, OGTT) | other results
N#Cc1ccc(OCCC2SC(=O)NC2=O)cc1 (stereo not shown) [Compound A, 4-[2-(2,4-dioxothiazolidin-5-yl)ethoxy]benzonitrile] | 47.2 | 160 | 321 | 100.8 | 381 | 89.6 | 418 | 84.5 | 424 | 74.6 | 447 | 77 | 419 | 93.8 | 378 | 101.5 | 47702.5 | 10384.25 | little or no effect | decrease observed (carbohydrate tolerance, glucose curve vs control) (acute 12.5 mg/kg, n0STZ rats, OGTT): 6%
COc1ccc(Cl)cc1C(=O)NCCc1ccc(S(=O)(=O)NC(=O)NC2CCCCC2)cc1 [Glibenclamide] | 84.2 | 138 | 312 | 116.9 | 407 | 129.4 | 470 | 105.8 | 520 | 100 | 513 | 88.3 | 507 | 92.5 | 448 | 97.5 | 55027.5 | 11930.75 | little or no effect | increase observed (carbohydrate tolerance, glucose curve vs control) (acute 2 mg/kg, n0STZ rats, OGTT): 6%
